Where two headings read alike, the source gives them in different places.
Assays:
[1] = Clinical pharmacokinetics: distribution and elimination; conditions: human, in vivo
From the text: The volume of distribution at steady state was approximately 4.8-6.6 L/kg.
Clearance of OM after oral administration was primarily through metabolism in the liver. […] Following oral administration of radiolabeled OM to healthy subjects, approximately 49% of the dose was excreted in urine (primarily as metabolites with 8% of parent compound recovered) and 38% in feces (primarily as unchanged drug).

BCRP = molecular target: T1, BCRP (Homo sapiens, UniProt Q9UNQ0); assay: Transporter substrate assessment; format: in vitro ADME; conditions: result in words
T1 sequence (Q9UNQ0 1-655): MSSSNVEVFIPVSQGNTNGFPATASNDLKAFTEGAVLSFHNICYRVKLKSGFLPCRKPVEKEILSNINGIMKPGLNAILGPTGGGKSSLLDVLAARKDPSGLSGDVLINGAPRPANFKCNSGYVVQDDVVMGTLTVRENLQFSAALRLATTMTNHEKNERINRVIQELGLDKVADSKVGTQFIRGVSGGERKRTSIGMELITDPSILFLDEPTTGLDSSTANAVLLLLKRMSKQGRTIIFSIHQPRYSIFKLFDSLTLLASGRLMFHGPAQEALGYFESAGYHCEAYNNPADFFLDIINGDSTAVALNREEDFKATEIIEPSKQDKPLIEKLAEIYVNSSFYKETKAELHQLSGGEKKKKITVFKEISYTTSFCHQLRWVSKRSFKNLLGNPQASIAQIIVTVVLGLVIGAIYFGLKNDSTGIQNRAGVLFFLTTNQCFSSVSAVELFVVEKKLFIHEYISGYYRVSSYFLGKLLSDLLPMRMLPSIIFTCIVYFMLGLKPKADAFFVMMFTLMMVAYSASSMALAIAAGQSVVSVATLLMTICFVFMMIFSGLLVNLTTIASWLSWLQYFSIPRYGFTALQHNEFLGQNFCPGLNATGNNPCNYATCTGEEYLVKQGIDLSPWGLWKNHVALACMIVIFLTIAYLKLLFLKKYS

[2] = system: patients with or without more advanced HF; format: in vivo, human; conditions: for KCCQ total symptom score (TSS), increase: inpatient; for KCCQ total symptom score (TSS), increase / KCCQ total symptom score (TSS), decrease: vs placebo; for KCCQ total symptom score (TSS), decrease: outpatient
From the text: Patients having more advanced heart failure (HF): In some aspects, provided is a method of treating a patient having more advanced HF by administering omecamtiv mecarbil as described herein. More advanced HF, also referred to as severe HF, refractory HF, or Stage D HF, can be determined based on a number of criteria recognized in the medical field. In some embodiments, more advanced HF refers to the published criteria from the 2018 ESC-HFA position statement (European journal of heart failure. 2018; 20:1505-1535). For the ESC-HFA criteria, patients were required to have all of 1) NYHA class III-IV symptoms, 2) a left ventricular ejection fraction 30%, 3) 2 or more hospitalizations for HF within the prior 12 months, and 4) evidence of severe functional impairment as defined by cardiopulmonary exercise testing or 6-minute walk test. In some embodiments, the hospitalization criteria is modified to one HF hospitalization within the prior 6 months In some embodiments, more advanced HF refers to patients having all of 1) NYHA class III-IV symptoms, 2) a left ventricular ejection fraction 30%, and 3) 1 or more hospitalizations for HF within the prior 6 months.
Baseline characteristics for patients classified as more advanced HF compared to those without were evaluated using appropriate summary statistics. Outcomes for patients with or without more advanced HF were compared using Cox proportional hazards models and Kaplan-Meier curves. […] Absolute event rates were described using rate per 100 patient-years. As a sensitivity analysis, the event rates and treatment effect of omecamtiv mecarbil for patients was assessed by specific advanced HF criteria met, as well as the total number of criteria met. For quality-of-life data as assessed by the Kansas City Cardiomyopathy Questionnaire Total Symptom Score (KCCQ TSS), linear regression adjusted for baseline scores was used to compare treatment effects of omecamtiv mecarbil compared to placebo. Safety and tolerability data for patients with advanced HF vs. those without were summarized using descriptive statistics. P value ≤0.05 was considered statistically significant for all analyses.

[3] = Advanced HF, week 0 to 24, OM vs placebo
[4] = Less Advanced Heart Failure, OM group
[5] = Less Advanced Heart Failure, OM vs placebo
[6] = More Advanced Heart Failure, OM group
[7] = More Advanced Heart Failure, OM vs placebo

For COC(=O)N1CCN(Cc2cccc(NC(=O)Nc3ccc(C)nc3)c2F)CC1 [omecamtiv mecarbil], the “Renal clearance as share of the systemic clearance” value [1] was “less than 10%”, the CL renal ([1]; oral, read-out: Mean renal clearance (converted)) was 16.7 mL/min and the clearance ([1]; oral, read-out: Total systemic clearance (converted)) was 195 mL/min. For the same molecule, the half-life ([1]; patients with heart failure, read-out: Median half-life) was 23 to 32 h, the Vd ([1]; read-out: Volume of distribution at steady state) was 4.8 to 6.6 L/kg and the “Substrate of BCRP” value (BCRP) was “substrate”. For the same molecule, the Creatinine ([2]; Advanced HF, OM group, week 24) was 1.37 ± 0.55 mg/dL, the NT-proBNP ([2]; Advanced HF, OM group, week 24) was 1837 [856, pg/ml and the “Systolic BP” value ([2]; Advanced HF, OM group, week 24) was 116.7 ± 17.3 mm Hg. The “NT-proBNP (Ratio)” value [2, 3] was 0.86, the “Troponin I (Ratio)” value [2, 3] was 1.30 and the “All-cause Death (%)” value [2, 4] was “(23%)”. For the same molecule, the “All-cause Death Rate” value [2, 4] was 12.4 per 100 patient years, the “All-cause Death n/N” value [2, 4] was 692/3014 and the “HF Hosp as 1st Primary Event (%)” value [2, 4] was “(24%)”. For the same molecule, the “HF Hosp as 1st Primary Event Rate” value [2, 4] was 15.0 per 100 patient years, the “HF Hosp as 1st Primary Event n/N” value [2, 4] was 722/3014 and the “Heart Failure Hospitalization (%)” value [2, 4] was “(25%)”. For the same molecule, the “Heart Failure Hospitalization Rate” value [2, 4] was 15.4 per 100 patient years, the “Heart Failure Hospitalization n/N” value [2, 4] was 746/3014 and the “Primary Outcome (%)” value [2, 4] was “(34%)”. For the same molecule, the “Primary Outcome Rate” value [2, 4] was 21.1 per 100 patient years, the “Primary Outcome n/N” value [2, 4] was 1013/3014 and the “Urgent Outpatient Visit as 1st Primary Event (%)” value [2, 4] was “(2%)”. For the same molecule, the “Urgent Outpatient Visit as 1st Primary Event Rate” value [2, 4] was 1.1 per 100 patient years, the “Urgent Outpatient Visit as 1st Primary Event n/N” value [2, 4] was 52/3014 and the “All-cause Death ARR” value [2, 5] was 0.6 per 100 patient years. The “All-cause Death HR (95% CI)” value [2, 5] was 1.05 (0.94, 1.17);, the “Heart Failure Hospitalization ARR” value [2, 5] was −0.1 per 100 patient years and the “Heart Failure Hospitalization HR (95% CI)” value [2, 5] was 1.01 (0.91, 1.12);. For the same molecule, the “Primary Outcome ARR” value [2, 5] was 0.2 per 100 patient years, the “Primary Outcome HR (95% CI)” value [2, 5] was 0.99 (0.91, 1.08); and the “All-cause Death (%)” value [2, 6] was “(34%)”. For the same molecule, the “All-cause Death Rate” value [2, 6] was 20.1 per 100 patient years, the “All-cause Death n/N” value [2, 6] was 365/1081 and the “HF Hosp as 1st Primary Event (%)” value [2, 6] was “(35%)”. The “HF Hosp as 1st Primary Event Rate” value [2, 6] was 25.9 per 100 patient years, the “HF Hosp as 1st Primary Event n/N” value [2, 6] was 385/1106 and the “Heart Failure Hospitalization (%)” value [2, 6] was “(36%)”. The “Heart Failure Hospitalization Rate” value [2, 6] was 26.2 per 100 patient years, the “Heart Failure Hospitalization n/N” value [2, 6] was 385/1081 and the “Primary Endpoint (%)” value [2, 6] was “(46%)”. For the same molecule, the “Primary Endpoint Rate” value [2, 6] was 34.3 per 100 patient years, the “Primary Endpoint n/N” value [2, 6] was 510/1106 and the “Urgent Outpatient Visit as 1st Primary Event (%)” value [2, 6] was “(2%)”. For the same molecule, the “Urgent Outpatient Visit as 1st Primary Event Rate” value [2, 6] was 1.2 per 100 patient years, the “Urgent Outpatient Visit as 1st Primary Event n/N” value [2, 6] was 18/1106 and the “All-cause Death ARR” value [2, 7] was 1.5 per 100 patient years. The “All-cause Death HR (95% CI)” value [2, 7] was 0.92 (0.80, 1.06);, the “Heart Failure Hospitalization ARR” value [2, 7] was 5.2 per 100 patient years and the “Heart Failure Hospitalization HR (95% CI)” value [2, 7] was 0.84 (0.73, 0.96);. For the same molecule, the “Primary Endpoint ARR” value [2, 7] was 8.3 per 100 patient years, the “Primary Endpoint HR (95% CI)” value [2, 7] was 0.80 (0.71, 0.90); and the NT-proBNP ([2]; Non-Advanced HF, OM group, week 24) was 1274 [531, pg/ml. For the same molecule, the “NT-proBNP (Ratio)” value ([2]; Non-Advanced HF, week 0 to 24, OM vs placebo) was 0.91, the “KCCQ total symptom score (TSS), increase” value ([2]; advanced HF) was 1.1 and the “KCCQ total symptom score (TSS), decrease” value ([2]; advanced HF) was 1.7. For the same molecule, the Myocardial infarctions ([2]; human, in vivo) was 3.8%, the “Serious adverse events related to ventricular tachyarrhythmias” value ([2]; human, in vivo) was 7.9% and the Strokes ([2]; human, in vivo) was 1.6%. The “Treatment emergent serious adverse events” value ([2]; human, in vivo) was 67%, the Circulating cardiac troponin ([2]; in vivo) was “small increase” and the Creatinine ([2]; in vivo) was 1.29 ± 0.49 mg/dL. For the same molecule, the “Heart rate lowering, difference in change vs placebo” value ([2]; in vivo) was 1.9 beats/minute, the “Systolic BP” value ([2]; in vivo) was 118.4 ± 16.8 mm Hg and the “Troponin I (Ratio)” value ([2]; in vivo) was 1.24. For the same molecule, the NT-proBNP ([2]; more advanced HF population, result in words) was “significant decrease”, the “KCCQ total symptom score (TSS), increase” value ([2]; non-advanced HF) was 3.3 and the “KCCQ total symptom score (TSS), decrease” value ([2]; non-advanced HF) was 0.2. For the same molecule, the “Cardiovascular mortality, hazard ratio” value ([2]; patients with less advanced HF) was 1.10, the “Absolute risk reduction, primary endpoint” value ([2]; patients with more advanced HF) was 8.3 events/100 patient-years and the “Cardiovascular mortality, hazard ratio” value ([2]; patients with more advanced HF) was 0.88. For the same molecule, the “Primary endpoint, hazard ratio” value ([2]; patients with more advanced HF) was 0.80, the “Relative risk reduction, primary endpoint” value ([2]; patients with more advanced HF) was 20% and the “Primary endpoint, hazard ratio” value ([2]; patients without more advanced HF) was 0.99. It also gave an NNT ([2]; primary endpoint, patients with more advanced HF) of 12.

Source: patent US12194039B2, “Methods of treating heart failure by administering omecamtiv mecarbil” (Cytokinetics, Inc., priority 2020, dated 2025)
